Assay results taken from PubChem BioAssay AID328 (DTP/NCI, 2004).
Where “and” joins values, the source holds several entries; their conditions need not be identical. Equal entries are not always repeated. Toxic doses and inconclusive results are not listed. Rule for the calls: active = survival T/C of 150% or more; inactive = T/C below 125% in these data.

Test system: BDF1 mice, P388 leukemia ip, median survival T/C
Experiment: NCI In Vivo Anticancer Drug Screen. Data for tumor model P388 Leukemia (intraperitoneal) in B6D2F1 (BDF1) mice
Settings: endpoint: median survival time, higher = longer survival
Outline: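 Survival ratio, drug arm over vehicle arm, in mice with a transplanted tumour.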

[1] = dose: 100.0 mg/kg/injection, schedule: Q01DX005 (ip), vehicle: saline with Tween-80
[2] = dose: 200.0 mg/kg/injection, schedule: Q01DX005 (ip), vehicle: saline with Tween-80
[3] = dose: 100.0 mg/kg/injection, schedule: Q01DX009 (ip), vehicle: saline with Tween-80
[4] = dose: 200.0 mg/kg/injection, schedule: Q01DX009 (ip), vehicle: saline with Tween-80
[5] = dose: 50.0 mg/kg/injection, schedule: Q01DX009 (ip), vehicle: saline with Tween-80

Measured: T/C

CCCCCCCCCCCCCCCCP(=O)(OCCOCCCCCC)OCCOCCCCCC
inactive: dose: 12.5 mg/kg/injection, schedule: Q01DX009 (ip), vehicle: alcohol 105 % of control | dose: 12.5 mg/kg/injection, schedule: Q01DX009 (ip), vehicle: saline 87 % of control | dose: 25.0 mg/kg/injection, schedule: Q01DX009 (ip), vehicle: alcohol 105 % of control | dose: 82.5 mg/kg/injection, schedule: Q01DX001 (ip), vehicle: saline 100 % of control | dose: 165.0 mg/kg/injection, schedule: Q01DX001 (ip), vehicle: saline 100 % of control

O=C1Cc2cc(=C(c3ccccc3)c3ccccc3)ccc2=C1c1ccccc1
inactive: dose: 50.0 mg/kg/injection, schedule: Q01DX005 (ip), vehicle: saline with Tween-80 93 % of control | [1] 96 % of control | [2] 91 % of control

CC(=O)/C(=C\c1ccc(Cl)c(Cl)c1)C(=O)c1ccccc1
inactive: dose: 100.0 mg/kg/injection, schedule: Q04DX003 (ip), vehicle: other 113 % of control | dose: 200.0 mg/kg/injection, schedule: Q04DX003 (ip), vehicle: other 113 % of control

CC(=O)Oc1ccc(OC(C)=O)c2c1C(=O)C=CC2=O
inactive: dose: 0.09 mg/kg/injection, schedule: Q01DX009 (ip), vehicle: Klucel (hydroxypropylcellulose) (HPC) 97 % of control | dose: 0.18 mg/kg/injection, schedule: Q01DX009 (ip), vehicle: Klucel (hydroxypropylcellulose) (HPC) 97 % of control | dose: 0.37 mg/kg/injection, schedule: Q01DX009 (ip), vehicle: Klucel (hydroxypropylcellulose) (HPC) 112 % of control | dose: 0.75 mg/kg/injection, schedule: Q01DX009 (ip), vehicle: Klucel (hydroxypropylcellulose) (HPC) 118 % of control | dose: 1.5 mg/kg/injection, schedule: Q01DX009 (ip), vehicle: Klucel (hydroxypropylcellulose) (HPC) 93 % of control and 98 % of control | dose: 3.0 mg/kg/injection, schedule: Q01DX009 (ip), vehicle: Klucel (hydroxypropylcellulose) (HPC) 95 % of control | dose: 6.25 mg/kg/injection, schedule: Q01DX009 (ip), vehicle: Klucel (hydroxypropylcellulose) (HPC) 91 % of control

O=C1CN(Cc2ccccc2)CC(=O)N2Cc3ccccc3CN12
inactive: [1] 101 % of control | [2] 92 % of control

O=c1c2ccccc2[nH]c2ccc(Cl)cc12
inactive: [3] 97 % of control | [4] 98 % of control | dose: 400.0 mg/kg/injection, schedule: Q01DX009 (ip), vehicle: saline with Tween-80 89 % of control

O=C(O)c1cc([N+](=O)[O-])cc([N+](=O)[O-])c1 (tested in a mixture with another compound)
inactive: dose: 3.13 mg/kg/injection, schedule: Q04DX002 (ip), vehicle: saline with Tween-80 100 % of control | dose: 6.25 mg/kg/injection, schedule: Q04DX002 (ip), vehicle: saline with Tween-80 108 % of control | dose: 12.5 mg/kg/injection, schedule: Q04DX002 (ip), vehicle: saline with Tween-80 104 % of control | dose: 25.0 mg/kg/injection, schedule: Q04DX002 (ip), vehicle: saline with Tween-80 112 % of control

CC(C)NC(=O)c1ccccc1Sc1ccccc1
inactive: [5] 100 % of control | [3] 106 % of control | [4] 108 % of control

C[Si](C)(OC(=O)N(CCCl)CCCl)O[Si](C)(C)OC(=O)N(CCCl)CCCl
inactive: dose: 6.25 mg/kg/injection, schedule: Q01DX009 (ip), vehicle: saline with Tween-80 110 % of control
active: dose: 25.0 mg/kg/injection, schedule: Q01DX009 (ip), vehicle: saline with Tween-80 185 % of control | [5] 208 % of control

O=S1(=O)CCCCO1
inactive: dose: 11.0 mg/kg/injection, schedule: Q01DX009 (ip), vehicle: saline 90 % of control | dose: 16.5 mg/kg/injection, schedule: Q01DX009 (ip), vehicle: saline 100 % of control | dose: 25.0 mg/kg/injection, schedule: Q01DX009 (ip), vehicle: saline 109 % of control | dose: 25.0 mg/kg/injection, schedule: Q04DX003 (ip), vehicle: saline 95 % of control | dose: 37.5 mg/kg/injection, schedule: Q01DX009 (ip), vehicle: saline 100 % of control | dose: 50.0 mg/kg/injection, schedule: Q04DX003 (ip), vehicle: saline 100 % of control | dose: 100.0 mg/kg/injection, schedule: Q04DX003 (ip), vehicle: saline 104 % of control

CCCCCCCCCCCCCCCCCOc1ccc(I)cc1
inactive: dose: 50.0 mg/kg/injection, schedule: Q01DX001 (ip), vehicle: saline with Tween-80 95 % of control | dose: 100.0 mg/kg/injection, schedule: Q01DX001 (ip), vehicle: saline with Tween-80 100 % of control | dose: 200.0 mg/kg/injection, schedule: Q01DX001 (ip), vehicle: saline with Tween-80 90 % of control
